How the values were obtained:
[1] = target: T1, recombinant human Muscarinic M1 receptor (Homo sapiens, UniProt P11229); experiment: Allosteric potency EC50 for muscarinic M1 receptor, CHO pCRE-Luc reporter cell-based assay with EC20 of acetylcholine; conditions: CHO cells, luciferase activity, in presence of EC20 of acetylcholine, 4 hours
T1 sequence (P11229 1-460): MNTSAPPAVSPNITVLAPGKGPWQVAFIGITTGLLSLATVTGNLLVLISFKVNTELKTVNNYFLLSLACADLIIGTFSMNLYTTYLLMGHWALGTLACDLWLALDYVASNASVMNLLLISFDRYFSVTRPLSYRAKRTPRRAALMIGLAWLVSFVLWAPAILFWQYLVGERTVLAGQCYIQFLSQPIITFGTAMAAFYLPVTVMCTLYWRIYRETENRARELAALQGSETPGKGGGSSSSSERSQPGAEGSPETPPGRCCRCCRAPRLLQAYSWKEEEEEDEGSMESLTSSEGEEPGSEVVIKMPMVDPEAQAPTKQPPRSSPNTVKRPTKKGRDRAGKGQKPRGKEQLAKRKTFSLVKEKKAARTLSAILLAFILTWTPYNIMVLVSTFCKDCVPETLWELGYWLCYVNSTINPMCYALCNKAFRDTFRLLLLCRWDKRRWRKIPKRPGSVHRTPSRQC
Description: Determination of Allosteric Potency EC50 Values for Muscarinic M1 Receptor
A stable CHO cell line expressing recombinant human Muscarinic M1 receptor and pCRE-Luc reporter system was used for cell-based assay. The assay offers a non-radioactive based approach to determine binding of a compound to GPCRs. In this specific assay, the level of intracellular cyclic AMP which is modulated by activation or inhibition of the receptor is measured. The recombinant cells harbor luciferase reporter gene under the control of cyclic AMP response element.
The above cells were grown in 96 well clear bottom white plates in Hams F12 medium containing 10% fetal bovine serum (FBS). Prior to the addition of compounds or standard agonist, cells were serum starved overnight. Increasing concentrations of test compounds were added along with EC20 of acetylcholine in OptiMEM medium to the cells. The incubation was continued at 37° C. in CO2 incubator for 4 hours. Medium was removed and cells were washed with phosphate buffered saline. The cells were lysed and luciferase activity was measured in a Luminometer. Luminescence units were plotted against the compound concentrations using Graphpad software.

[2] = Rodent pharmacokinetic study; format: in vivo, Male Wistar rats; conditions: male, Wistar, plasma, rat; for bioavailability: oral 3 mg/kg vs intravenous 1 mg/kg, read-out: F (%) Bioavailability
Description: Rodent Pharmacokinetic Study
Male Wistar rats (260±50 grams) were used as experimental animals. Animals were housed individually in polypropylene cage. Two days prior to study, male Wistar rats were anesthetized with isoflurane for surgical placement of jugular vein catheter. Rats were randomly divided for oral (3 mg/kg) and intravenous (1 mg/kg) dosing (n=3/group) and fasted overnight before oral dosing (p.o.). However, rats allocated to intravenous dosing food and water was provided ad libitum.
At pre-determined point, blood was collected through jugular vein and replenished with an equivalent volume of normal saline. Collected blood was transferred into a labeled eppendorf tube containing 10 μL of heparin as an anticoagulant. Typically blood samples were collected at following time points: 0.08, 0.25, 0.5, 1, 2, 4, 6, 8, and 24 h post dose. Blood was centrifuged at 4000 rpm for 10 minutes. Plasma was separated and stored frozen at −80° C. until analysis. The concentrations of the test compounds were quantified in plasma by qualified LC-MS/MS method using suitable extraction technique. The test compounds were quantified in the calibration range around 1-1000 ng/mL in plasma. Study samples were analyzed using calibration samples in the batch and quality control samples spread across the batch.
Pharmacokinetic parameters Cmax, AUCt, T1/2, Clearance and Bioavailability (F) were calculated by non-compartmental model using standard non-compartmental model by using Phoenix WinNonlin 6.0.4 version Software package.

SMILES: O=C(N[C@H]1CCCC[C@@H]1O)c1cc(Cc2ccc(-c3ccc(F)cc3)cc2)c2cccn2n1 (stereo in doubt) [Example 23, N-[(1S,2S)-2-Hydroxycyclohexyl] 4-[4-(4-fluorophenyl)-benzyl]-pyrrolo[1,2-b]pyridazine-2-carboxamide]
- EC50 [1]: 1.02 µM

SMILES: O=C(N[C@H]1CCCC[C@@H]1O)c1cc(Cc2ccc(-c3cccnc3)cc2)c2cccn2n1 (stereo in doubt) [Example 26, N-[(1S,2S)-2-Hydroxycyclohexyl] 4-[4-(3-pyridyl)-benzyl]-pyrrolo[1,2-b]pyridazine-2-carboxamide]
- AUC(0-t) ([2]; intravenous (bolus), 1 mg/kg): 1130 ± 61 ng·h/mL
- clearance ([2]; intravenous (bolus), 1 mg/kg): 14.4 ± 1 mL/min/kg
- half-life ([2]; intravenous (bolus), 1 mg/kg): 1.8 ± 0.2 h
- bioavailability [2]: 71 ± 4%
- AUC(0-t) ([2]; oral (gavage), 3 mg/kg): 2390 ± 129 ng·h/mL
- Cmax ([2]; oral (gavage), 3 mg/kg): 762 ± 80 ng/mL
- half-life ([2]; oral (gavage), 3 mg/kg): 1.77 ± 0.07 h

SMILES: O=C(N[C@H]1CCCC[C@@H]1O)c1cc(Cc2ccc(-c3ccncc3)cc2)c2cccn2n1 (stereo in doubt) [Example 27, N-[(1S,2S)-2-Hydroxycyclohexyl] 4-[4-(4-pyridyl)-benzyl]-pyrrolo[1,2-b]pyridazine-2-carboxamide]
- AUC(0-t) ([2]; intravenous (bolus), 1 mg/kg): 687 ± 50 ng·h/mL
- clearance ([2]; intravenous (bolus), 1 mg/kg): 24 ± 1.8 mL/min/kg
- half-life ([2]; intravenous (bolus), 1 mg/kg): 1.1 ± 0.3 h
- bioavailability [2]: 49 ± 16%
- AUC(0-t) ([2]; oral (gavage), 3 mg/kg): 1000 ± 320 ng·h/mL
- Cmax ([2]; oral (gavage), 3 mg/kg): 397 ± 162 ng/mL
- half-life ([2]; oral (gavage), 3 mg/kg): 1.06 ± 0.08 h

SMILES: O=C(N[C@H]1CCCC[C@@H]1O)c1cc(Cc2ccc(Cl)cc2)c2cccn2n1 [Example 2, N-[(1S,2S)-2-Hydroxycyclohexyl]-4-(4-chlorobenzyl)-pyrrolo[1,2-b]pyridazine-2-carboxamide]
- EC50 [1]: 0.555 µM

SMILES: CC(C)(O)CNC(=O)c1cc(Cc2ccc(Cl)cc2)c2cccn2n1 [Example 3, N-[2-Hydroxy-2-methyl-propyl]-4-(4-chlorobenzyl)-pyrrolo[1,2-b]pyridazine-2-carboxamide]
- EC50 [1]: 0.941 µM

SMILES: O=C(N[C@H]1CCCC[C@@H]1O)c1cc(Cc2ccc(Br)cc2)c2cccn2n1 [Example 5, N-[(1S,2S)-2-Hydroxycyclohexyl]-4-(4-bromobenzyl)-pyrrolo[1,2-b]pyridazine-2-carboxamide]
- EC50 [1]: 0.344 µM

SMILES: O=C(NCC1(O)CCOCC1)c1cc(Cc2ccc(Cl)cc2)c2cccn2n1 [Example 6, N-[(4-Hydroxy-tetrahydro-pyran-4-ylmethyl)]-4-(4-chlorobenzyl)-pyrrolo[1,2-b]pyridazine-2-carboxamide]
- EC50 [1]: 3.99 µM

SMILES: O=C(N[C@H]1CCCC[C@@H]1O)c1cc(Cc2cccc(F)c2)c2cccn2n1 [Example 7, N-[(1S,2S)-2-Hydroxycyclohexyl]-4-(3-fluorobenzyl)-pyrrolo[1,2-b]pyridazine-2-carboxamide]
- EC50 [1]: 0.847 µM

SMILES: O=C(NCCO)c1cc(Cc2ccc(Br)cc2)c2cccn2n1 [Example 12, N-[2-hydroxyethyl]-4-(4-bromobenzyl)-pyrrolo[1,2-b]pyridazine-2-carboxamide]
- EC50 [1]: 1.55 µM

SMILES: CCC(CO)NC(=O)c1cc(Cc2ccc(Br)cc2)c2cccn2n1 (stereo not drawn) [Example 16, N-[1-Hydroxymethyl-propyl]-4-(4-bromobenzyl)-pyrrolo[1,2-b]pyridazine-2-carboxamide]
- EC50 [1]: 1 µM

SMILES: CC(C)C(CO)NC(=O)c1cc(Cc2ccc(Br)cc2)c2cccn2n1 (stereo not drawn) [Example 17, N-[1-Hydroxymethyl-2-methylpropyl]-4-(4-bromobenzyl)-pyrrolo[1,2-b]pyridazine-2-carboxamide]
- EC50 [1]: 1.9 µM

SMILES: Cn1cc(-c2ccc(Cc3cc(C(=O)NC4CCOCC4)nn4cccc34)cc2)cn1 [Example 21, N-[Tetrahydropyran-4-yl] 4-[4-(1-methyl-1H-pyrazol-4-yl)-benzyl]-pyrrolo[1,2-b]pyridazine-2-carboxamide]
- AUC(0-t) ([2]; intravenous (bolus), 1 mg/kg): 8200 ± 1560 ng·h/mL
- clearance ([2]; intravenous (bolus), 1 mg/kg): 1.9 ± 0.5 mL/min/kg
- half-life ([2]; intravenous (bolus), 1 mg/kg): 8.1 ± 1.4 h
- bioavailability [2]: 58 ± 2%
- AUC(0-t) ([2]; oral (gavage), 3 mg/kg): 14200 ± 493 ng·h/mL
- Cmax ([2]; oral (gavage), 3 mg/kg): 1060 ± 257 ng/mL
- half-life ([2]; oral (gavage), 3 mg/kg): 8.7 ± 3 h

SMILES: Cn1cc(-c2ccc(Cc3cc(C(=O)NCC4(O)CCOCC4)nn4cccc34)cc2)cn1 [Example 22, N-[4-Hydroxy-tetrahydro-pyran-4-ylmethyl] 4-[4-(1-methyl-1H-pyrazol-4-yl)-benzyl]-pyrrolo[1,2-b]pyridazine-2-carboxamide]
- EC50 [1]: 1.66 µM

SMILES: O=C(NC1CCOCC1)c1cc(Cc2ccc(-c3cccnc3)cc2)c2cccn2n1 [Example 28, N-[Tetrahydropyran-4-yl] 4-[4-(3-pyridyl)-benzyl]-pyrrolo[1,2-b]pyridazine-2-carboxamide]
- EC50 [1]: 0.586 µM

SMILES: Cn1cc(-c2ccc(Cc3cc(C(=O)NC4CCOC4)nn4cccc34)cc2)cn1 (stereo not drawn) [Example 32, N-[Tetrahydrofuran-3-yl] 4-[4-(1-methyl-1H-pyrazol-4-yl)-benzyl]-pyrrolo[1,2-b]pyridazine-2-carboxamide]
- EC50 [1]: 2.02 µM

SMILES: O=C(NC1CCOC1)c1cc(Cc2ccc(-c3ccncc3)cc2)c2cccn2n1 (stereo not drawn) [Example 33, N-[Tetrahydrofuran-3-yl] 4-[4-(4-pyridyl)-benzyl]-pyrrolo[1,2-b]pyridazine-2-carboxamide]
- EC50 [1]: 2.11 µM

SMILES: O=C(NC1CCOC1)c1cc(Cc2ccc(-c3cccnc3)cc2)c2cccn2n1 (stereo not drawn) [Example 34, N-[Tetrahydrofuran-3-yl] 4-[4-(3-pyridyl)-benzyl]-pyrrolo[1,2-b]pyridazine-2-carboxamide]
- EC50 [1]: 2.85 µM

SMILES: Cn1cc(-c2ccc(Cc3cc(C(=O)NCC4CCOC4)nn4cccc34)cc2)cn1 (stereo not drawn) [Example 35, N-[Tetrahydrofuran-3-ylmethyl] 4-[4-(1-methyl-1H-pyrazol-4-yl)-benzyl]-pyrrolo[1,2-b]pyridazine-2-carboxamide]
- EC50 [1]: 0.343 µM

SMILES: CCC(CO)NC(=O)c1cc(Cc2ccc(-c3cnn(C)c3)cc2)c2cccn2n1 (stereo not drawn) [Example 36, N-[l-Hydroxymethyl-propyl] 4-[4-(1-methyl-1H-pyrazol-4-yl)-benzyl]-pyrrolo[1,2-b]pyridazine-2-carboxamide]
- EC50 [1]: 1.15 µM

SMILES: CC(C)C(CO)NC(=O)c1cc(Cc2ccc(-c3cnn(C)c3)cc2)c2cccn2n1 (stereo not drawn) [Example 37, N-[1-Hydroxymethyl-2-methylpropyl] 4-[4-(1-methyl-1H-pyrazol-4-yl)-benzyl]-pyrrolo[1,2-b]pyridazine-2-carboxamide]
- EC50 [1]: 0.411 µM

SMILES: O=C(N[C@H]1CCCC[C@@H]1O)c1cc(Cc2ccc(Cc3ccnc(F)c3)cc2)c2cccn2n1 [Example 50, N-[(1S,2S)-2-Hydroxycyclohexyl]-4-[4-(2-fluoropyridin-4-yl-methyl)-benzyl]-pyrrolo[1,2-b]pyridazine-2-carboxamide]
- EC50 [1]: 0.518 µM
